What follows are molecules tested against T1, Human CaV2.2 channels (Homo sapiens, UniProt Q00975) (assay: Fluorescence assay for CaV2.2 channels using potassium depolarization to induce channel opening (FLIPR, Fluo 4)). Conditions: 3 μM test compound; alternative assay buffer 30 mM KCl (inactivated channel state); HEK293 cells stably expressing human CaV2.2.
T1 construct: expressed in transfected cells
Format: cell-based
Method in brief: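 HEK293 cells stably co-expressing CaV2.2 with alpha2-delta and beta subunits plus Kir2.3, loaded with 2 μM Fluo 4 and pre-incubated 15 min at 25° C with compound in 1 mM or 30 mM KCl buffer (pH 7.4; latter promotes inactivated state). Depolarized by KCl addition; peak fluorescence amplitude normalized to baseline gives inhibition.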

T1 sequence (P54289 947-1103): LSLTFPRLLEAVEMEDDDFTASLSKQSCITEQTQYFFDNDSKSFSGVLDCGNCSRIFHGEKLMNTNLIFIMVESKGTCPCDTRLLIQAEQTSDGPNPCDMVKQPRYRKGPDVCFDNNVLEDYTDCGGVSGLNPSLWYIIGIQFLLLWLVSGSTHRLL
T1 sequence (P54289 25-946): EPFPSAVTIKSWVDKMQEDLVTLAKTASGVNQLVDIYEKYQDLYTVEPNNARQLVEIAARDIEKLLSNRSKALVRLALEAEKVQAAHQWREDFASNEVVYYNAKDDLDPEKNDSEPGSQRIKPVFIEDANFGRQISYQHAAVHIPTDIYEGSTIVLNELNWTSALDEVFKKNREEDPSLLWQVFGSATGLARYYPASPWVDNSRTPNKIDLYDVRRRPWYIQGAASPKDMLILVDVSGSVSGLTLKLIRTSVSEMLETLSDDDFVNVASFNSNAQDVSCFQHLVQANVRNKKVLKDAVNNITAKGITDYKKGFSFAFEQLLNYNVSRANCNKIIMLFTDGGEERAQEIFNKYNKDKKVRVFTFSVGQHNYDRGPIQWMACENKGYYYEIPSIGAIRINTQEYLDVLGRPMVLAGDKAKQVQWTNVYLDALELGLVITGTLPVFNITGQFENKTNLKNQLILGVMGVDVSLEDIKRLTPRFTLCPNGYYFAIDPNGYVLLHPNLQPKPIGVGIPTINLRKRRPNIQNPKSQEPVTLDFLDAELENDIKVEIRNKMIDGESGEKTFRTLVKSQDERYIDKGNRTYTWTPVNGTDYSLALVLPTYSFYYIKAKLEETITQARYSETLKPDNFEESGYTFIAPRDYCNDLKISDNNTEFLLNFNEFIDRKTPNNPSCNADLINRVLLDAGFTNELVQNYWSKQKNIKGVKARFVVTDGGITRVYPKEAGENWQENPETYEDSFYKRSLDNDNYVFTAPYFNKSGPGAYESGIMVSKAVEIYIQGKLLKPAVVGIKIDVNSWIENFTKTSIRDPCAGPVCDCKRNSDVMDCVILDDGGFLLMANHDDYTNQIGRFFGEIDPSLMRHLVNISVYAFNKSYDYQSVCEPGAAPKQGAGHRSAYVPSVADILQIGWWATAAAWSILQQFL
T1 sequence (P54284 whole entry, further chain): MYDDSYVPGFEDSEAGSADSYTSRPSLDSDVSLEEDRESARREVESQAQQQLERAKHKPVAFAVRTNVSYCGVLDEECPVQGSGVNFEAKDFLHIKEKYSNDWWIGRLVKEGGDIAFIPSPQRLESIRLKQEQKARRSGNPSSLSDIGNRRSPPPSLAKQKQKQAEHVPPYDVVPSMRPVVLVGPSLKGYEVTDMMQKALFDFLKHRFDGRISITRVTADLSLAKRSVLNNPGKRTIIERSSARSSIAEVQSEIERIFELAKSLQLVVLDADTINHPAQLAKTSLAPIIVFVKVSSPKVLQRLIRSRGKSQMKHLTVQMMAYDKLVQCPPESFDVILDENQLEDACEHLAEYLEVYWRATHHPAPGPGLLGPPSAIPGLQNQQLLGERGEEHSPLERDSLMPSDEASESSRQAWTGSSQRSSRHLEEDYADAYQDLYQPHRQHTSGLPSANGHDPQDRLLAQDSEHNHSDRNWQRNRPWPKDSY
T1 sequence (Q00975 whole entry): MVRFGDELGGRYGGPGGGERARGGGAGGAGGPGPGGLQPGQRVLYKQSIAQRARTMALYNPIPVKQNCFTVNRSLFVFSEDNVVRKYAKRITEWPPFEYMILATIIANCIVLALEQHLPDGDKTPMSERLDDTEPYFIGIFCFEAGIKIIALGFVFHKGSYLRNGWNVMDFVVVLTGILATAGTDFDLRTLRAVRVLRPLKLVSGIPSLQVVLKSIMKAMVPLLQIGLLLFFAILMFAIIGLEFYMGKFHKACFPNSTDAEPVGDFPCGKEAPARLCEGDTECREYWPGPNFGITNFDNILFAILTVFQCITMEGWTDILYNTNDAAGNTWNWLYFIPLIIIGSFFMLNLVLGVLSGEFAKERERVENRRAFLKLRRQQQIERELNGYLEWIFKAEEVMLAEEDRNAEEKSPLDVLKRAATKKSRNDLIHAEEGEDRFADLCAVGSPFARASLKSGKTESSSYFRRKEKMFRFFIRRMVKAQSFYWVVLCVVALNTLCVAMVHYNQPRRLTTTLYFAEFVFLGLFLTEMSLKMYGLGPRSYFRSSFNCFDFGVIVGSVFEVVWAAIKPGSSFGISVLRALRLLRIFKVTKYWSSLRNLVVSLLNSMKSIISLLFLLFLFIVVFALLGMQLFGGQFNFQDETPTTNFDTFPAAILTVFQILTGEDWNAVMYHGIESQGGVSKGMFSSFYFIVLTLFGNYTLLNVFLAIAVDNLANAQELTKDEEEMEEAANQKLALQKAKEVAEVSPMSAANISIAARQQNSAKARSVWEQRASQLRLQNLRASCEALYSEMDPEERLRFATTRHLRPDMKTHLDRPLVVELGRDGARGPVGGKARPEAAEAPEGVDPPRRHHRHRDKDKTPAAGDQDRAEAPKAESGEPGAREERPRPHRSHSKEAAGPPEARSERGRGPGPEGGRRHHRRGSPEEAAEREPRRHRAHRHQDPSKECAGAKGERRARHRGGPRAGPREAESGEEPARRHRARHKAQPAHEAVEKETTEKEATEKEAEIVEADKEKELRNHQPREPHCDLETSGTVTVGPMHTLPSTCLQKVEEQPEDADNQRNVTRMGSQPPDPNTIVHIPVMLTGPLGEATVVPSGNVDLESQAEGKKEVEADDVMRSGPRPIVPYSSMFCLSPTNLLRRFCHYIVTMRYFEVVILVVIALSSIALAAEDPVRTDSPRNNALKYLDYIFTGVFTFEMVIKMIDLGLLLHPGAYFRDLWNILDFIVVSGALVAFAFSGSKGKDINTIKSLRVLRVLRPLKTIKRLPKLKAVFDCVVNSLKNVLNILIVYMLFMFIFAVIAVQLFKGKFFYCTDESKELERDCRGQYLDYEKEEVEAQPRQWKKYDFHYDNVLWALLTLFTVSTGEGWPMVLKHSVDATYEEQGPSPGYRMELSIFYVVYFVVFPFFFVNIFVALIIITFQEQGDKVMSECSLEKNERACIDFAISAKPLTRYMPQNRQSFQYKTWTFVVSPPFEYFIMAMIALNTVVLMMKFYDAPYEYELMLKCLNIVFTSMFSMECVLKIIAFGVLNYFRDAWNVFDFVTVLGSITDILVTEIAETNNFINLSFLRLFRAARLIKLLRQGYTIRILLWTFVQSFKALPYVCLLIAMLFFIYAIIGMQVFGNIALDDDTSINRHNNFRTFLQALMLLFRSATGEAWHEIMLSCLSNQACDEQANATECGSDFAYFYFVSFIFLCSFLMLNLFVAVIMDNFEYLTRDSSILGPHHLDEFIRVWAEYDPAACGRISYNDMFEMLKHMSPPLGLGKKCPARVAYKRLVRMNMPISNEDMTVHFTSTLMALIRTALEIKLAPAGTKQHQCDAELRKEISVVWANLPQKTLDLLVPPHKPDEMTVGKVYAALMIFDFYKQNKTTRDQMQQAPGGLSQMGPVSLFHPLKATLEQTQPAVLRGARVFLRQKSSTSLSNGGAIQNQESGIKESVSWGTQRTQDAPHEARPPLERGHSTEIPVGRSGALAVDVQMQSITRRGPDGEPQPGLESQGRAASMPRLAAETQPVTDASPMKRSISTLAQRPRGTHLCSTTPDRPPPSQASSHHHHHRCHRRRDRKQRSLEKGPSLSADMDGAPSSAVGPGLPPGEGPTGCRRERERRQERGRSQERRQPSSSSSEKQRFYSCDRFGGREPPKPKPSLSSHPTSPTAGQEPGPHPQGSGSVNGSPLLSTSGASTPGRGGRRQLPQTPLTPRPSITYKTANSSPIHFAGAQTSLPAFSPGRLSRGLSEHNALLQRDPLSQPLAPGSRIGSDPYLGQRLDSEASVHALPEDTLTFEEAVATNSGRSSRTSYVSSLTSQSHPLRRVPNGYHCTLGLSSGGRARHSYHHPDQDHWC

With `CC1(S(=O)(=O)c2cccc(C(F)(F)F)c2)CCOC(c2ncc(S(C)(=O)=O)cc2OC(F)F)C1` (centres unmarked) [SC-269, 3-(difluoromethoxy)-2-(4-methyl-4-((3-(trifluoromethyl)phenyl)sulfonyl)tetrahydro-2H-pyran-2-yl)-5-(methylsulfonyl)pyridine] as the molecule, how does the “Activity Category: %-Inhib (CaV2.2) @3 μM @30 mM KCl” value (“Activity Category: %-Inhib” below) read?
Its value is “A (%-Inhibition >95%)”.

For `COc1ccc(C2CC(C)(S(=O)(=O)c3cccc(C(F)(F)F)c3)CCO2)cn1` (centres unmarked) [SC-354, 2-Methoxy-5-[4-methyl-4-[[3-(trifluoromethyl)phenyl]sulfonyl]-tetrahydro-pyran-2-yl]-pyridine], which “Activity Category: %-Inhib” value is on record?
The value was “A (%-Inhibition >95%)”.

Which “Activity Category: %-Inhib” value does the source give for `Cn1nc(S(C)(=O)=O)cc1C1CC(C)(S(=O)(=O)c2cccc(C(F)(F)F)c2)CCO1` (centres unmarked) [SC-430, 1-Methyl-3-methylsulfonyl-5-[4-methyl-4-[[3-(trifluoromethyl)phenyl]sulfonyl]-tetrahydro-pyran-2-yl]-1H-pyrazole] here?
The value was “B (%-Inhibition >75% up to ≤95%)”.

Which “Activity Category: %-Inhib” value does the source give for `COc1cc(OC)c(C2CC(C)(S(=O)(=O)c3cccc(C(F)(F)F)c3)CCO2)cn1` (centres unmarked) [SC-246, 2,4-Dimethoxy-5-[4-methyl-4-[[3-(trifluoromethyl)phenyl]sulfonyl]-tetrahydro-pyran-2-yl]-pyridine] here?
Its value is “A (%-Inhibition >95%)”.

How did the “Activity Category: %-Inhib” value turn out when `CC1(S(=O)(=O)c2cccc(C(F)(F)F)c2)CCOC(c2cncc(S(C)(=O)=O)c2)C1` (centres unmarked) [SC-101, 3-Methylsulfonyl-5-[4-methyl-4-[[3-(trifluoromethyl)phenyl]sulfonyl]-tetrahydro-pyran-2-yl]-pyridine] was run?
The value was “B (%-Inhibition >75% up to ≤95%)”.

Same assay, conditions: HEK293, 3 μM test compound; alternative assay buffer 30 mM KCl (inactivated channel state); HEK293 cells stably expressing human CaV2.2; read-out: Activity Category: %-Inhib (CaV2.2) @3 μM @30 mM KCl

How did the inhibition at 3 µM turn out when `CC1(S(=O)(=O)c2cccc(C(F)(F)F)c2)CCOC(c2ccc(C3CC3)cn2)C1` (centres unmarked) [SC-103, 5-Cyclopropyl-2-[4-methyl-4-[[3-(trifluoromethyl)phenyl]sulfonyl]-tetrahydro-pyran-2-yl]-pyridine] was run?
Its inhibition at 3 µM is greater than 95%.

`COc1cc(F)c(C2CC(C)(S(=O)(=O)c3cccc(C(F)(F)F)c3)CCO2)cn1` (racemic) [SC-259, 4-Fluoro-2-methoxy-5-[4-methyl-4-[[3-(trifluoromethyl)phenyl]sulfonyl]-tetrahydro-pyran-2-yl]-pyridine] was tested. Which inhibition at 3 µM did it give?
The inhibition at 3 µM was greater than 95%.

With `CC1(S(=O)(=O)c2cccc(C(F)(F)F)c2)CCOC(c2ccc(Br)nc2)C1` (racemic) [SC-337, 2-Bromo-5-[4-methyl-4-[[3-(trifluoromethyl)phenyl]sulfonyl]-tetrahydro-pyran-2-yl]-pyridine] as the molecule, how does the inhibition at 3 µM read?
Its inhibition at 3 µM is greater than 95%.

Which inhibition at 3 µM does the source give for `CN(C)c1ncc(C2CC(C)(S(=O)(=O)c3cccc(C(F)(F)F)c3)CCO2)cn1` (centres unmarked) [SC-413, Dimethyl-[5-[4-methyl-4-[[3-(trifluoromethyl)phenyl]sulfonyl]-tetrahydro-pyran-2-yl]-pyrimidin-2-yl]-amine] here?
The inhibition at 3 µM was 75 to 95%.

How did the inhibition at 3 µM turn out when `CCC1(S(=O)(=O)c2cccc(C(F)(F)F)c2)CCOC(c2nnc(C(F)(F)F)o2)C1` (racemic) [SC-242, 2-[4-Ethyl-4-[[3-(trifluoromethyl)phenyl]sulfonyl]-tetrahydro-pyran-2-yl]-5-(trifluoromethyl)-[1,3,4]oxadiazole] was run?
The inhibition at 3 µM was 40 to 75%.

Which inhibition at 3 µM does the source give for `CCC1(S(=O)(=O)c2cccc(C(F)(F)F)c2)CCOC(c2ccc(C(F)(F)F)cn2)C1` (centres unmarked) [SC-106, 2-[4-Ethyl-4-[[3-(trifluoromethyl)phenyl]sulfonyl]-tetrahydro-pyran-2-yl]-5-(trifluoromethyl)-pyridine] here?
Its inhibition at 3 µM is greater than 95%.

How did the inhibition at 3 µM turn out when `CCC1(S(=O)(=O)c2cccc(C(F)(F)F)c2)CCOC(c2cnc(C3CC3)cn2)C1` (racemic) [SC-333, 2-Cyclopropyl-5-[4-ethyl-4-[[3-(trifluoromethyl)phenyl]sulfonyl]-tetrahydro-pyran-2-yl]-pyrazine] was run?
The inhibition at 3 µM was greater than 95%.

Which inhibition at 3 µM does the source give for `CC1(S(=O)(=O)c2cccc(C(F)(F)F)c2)CCOC(c2ncc(C3CC3)cc2Cl)C1` (racemic) [SC-435, 3-Chloro-5-cyclopropyl-2-[4-methyl-4-[[3-(trifluoromethyl)phenyl]sulfonyl]-tetrahydro-pyran-2-yl]-pyridine] here?
Its inhibition at 3 µM is greater than 95%.

`Cn1nc(C(F)(F)F)cc1C1CC(C)(S(=O)(=O)c2cccc(C(F)(F)F)c2)CCO1` (racemic) [SC-344, 1-Methyl-5-[4-methyl-4-[[3-(trifluoromethyl)phenyl]sulfonyl]-tetrahydro-pyran-2-yl]-3-(trifluoromethyl)-1H-pyrazole] was tested. Which inhibition at 3 µM did it give?
The inhibition at 3 µM was 75 to 95%.

From US9926302B2, “Heteroaryl substituted heterocyclyl sulfones” (priority 2014, dated 2018)
